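Growth conditions: 96-well plates. Treatment: test compound, 48 hours, 5 concentrations. Analysis: linear interpolation between bracketing concentrations; unreached endpoints set to highest concentration. GI50 is the concentration that inhibits growth by half.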 Activity calls are given as the source filed them. Cut-off read from the data, not from the text of the source: active = GI50 up to about 1.1 µM and inactive = higher.
Columns and labels:
Assay in all cases: inhibition of tumour cell growth, NCI panel, 48 h
TK-10 = test system: TK-10
ACHN = test system: ACHN
SF-268 = test system: SF-268
HOP-62 = test system: HOP-62
SNB-75 = test system: SNB-75
Hs-578T = test system: Hs-578T
U-251 = test system: U-251
M14 = test system: M14
NCI-H226 = test system: NCI-H226
SW-620 = test system: SW-620
SF-295 = test system: SF-295
NCI-H522 = test system: NCI-H522
CCRF-CEM = test system: CCRF-CEM
SK-MEL-28 = test system: SK-MEL-28
BT-549 = test system: BT-549
UACC-257 = test system: UACC-257
KM12 = test system: KM12
MOLT-4 = test system: MOLT-4
NCI/ADR-RES = test system: NCI/ADR-RES
OVCAR-3 = test system: OVCAR-3

Row | SMILES | GI50 (TK-10) | GI50 (ACHN) | GI50 (SF-268) | GI50 (HOP-62) | GI50 (SNB-75) | GI50 (Hs-578T) | GI50 (U-251) | GI50 (M14) | GI50 (NCI-H226) | GI50 (SW-620) | GI50 (SF-295) | GI50 (NCI-H522) | GI50 (CCRF-CEM) | GI50 (SK-MEL-28) | GI50 (BT-549) | GI50 (UACC-257) | GI50 (KM12) | GI50 (MOLT-4) | GI50 (NCI/ADR-RES) | GI50 (OVCAR-3)
1 | Cc1ccc(CC2(C(=O)O)Cc3ccc(C)cc3C2)cc1 (stereo not given) | > 100 µM (inactive) | 94.4 µM (inactive) | > 100 µM (inactive) | > 100 µM (inactive) | > 100 µM (inactive) | > 100 µM (inactive) | 71.3 µM (inactive) | > 100 µM (inactive) | > 100 µM (inactive) | > 100 µM (inactive) | 68.5 µM (inactive) | > 100 µM (inactive) | 49.2 µM (inactive) | > 100 µM (inactive) | 65.3 µM (inactive) | > 100 µM (inactive) | 89.7 µM (inactive) | > 100 µM (inactive) | > 100 µM (inactive) | > 100 µM (inactive)
2 | CCOC(=O)C(NC(=O)CC)(Nc1ccc(S(=O)(=O)Nc2ccc(OC)nn2)cc1)C(F)(F)F (stereo not given) | > 100 µM (inactive) | > 100 µM (inactive) | > 100 µM (inactive) | > 100 µM (inactive) | > 100 µM (inactive) | > 100 µM (inactive) | > 100 µM (inactive) | > 100 µM (inactive) | > 100 µM (inactive) | > 100 µM (inactive) | > 100 µM (inactive) | > 100 µM (inactive) | > 100 µM (inactive) | > 100 µM (inactive) | > 100 µM (inactive) | > 100 µM (inactive) | > 100 µM (inactive) | > 100 µM (inactive) | > 100 µM (inactive) | > 100 µM (inactive)
3 | COc1cc(S(=O)(=O)Nc2nc(-c3ccc(N)cc3)cs2)ccc1Cl | 48 µM (inactive) | 66.4 µM (inactive) | 75.7 µM (inactive) | > 100 µM (inactive) | > 100 µM (inactive) | 91.4 µM (inactive) | 63 µM (inactive) | 59.8 µM (inactive) | 41.7 µM (inactive) | > 100 µM (inactive) | 43.4 µM (inactive) | 56 µM (inactive) | 48.5 µM (inactive) | 69.3 µM (inactive) | 51.9 µM (inactive) | 57.3 µM (inactive) | 72.1 µM (inactive) | 53.7 µM (inactive) | 89.5 µM (inactive) | 54.3 µM (inactive)
4 | Clc1ccc(-c2noc(CN3CCCCC3)n2)cc1 | > 100 µM (inactive) | > 100 µM (inactive) | > 100 µM (inactive) | > 100 µM (inactive) | > 100 µM (inactive) | > 100 µM (inactive) | > 100 µM (inactive) | > 100 µM (inactive) | > 100 µM (inactive) | > 100 µM (inactive) | 66.8 µM (inactive) | 81.1 µM (inactive) | 77.1 µM (inactive) | > 100 µM (inactive) | > 100 µM (inactive) | 71 µM (inactive) | > 100 µM (inactive) | 49.7 µM (inactive) | 46.5 µM (inactive) | 67.9 µM (inactive)
5 | O=c1[nH]c(=O)n(C2CC(O)C(CO)O2)c2nc3ccc4cc5ccccc5cc4c3nc12 (stereo not given) | > 100 µM (inactive) | > 100 µM (inactive) | > 100 µM (inactive) | > 100 µM (inactive) | > 100 µM (inactive) | > 100 µM (inactive) | > 100 µM (inactive) | > 100 µM (inactive) | > 100 µM (inactive) | > 100 µM (inactive) | > 100 µM (inactive) | > 100 µM (inactive) | > 100 µM (inactive) | > 100 µM (inactive) | > 100 µM (inactive) | > 100 µM (inactive) | 51.6 µM (inactive) | > 100 µM (inactive) | > 100 µM (inactive) | > 100 µM (inactive)
6 | CCCCCCOc1ccc(NC2=C(Cl)C(=O)c3c(O)ccc(O)c3C2=O)cc1 | 6.32 µM (inactive) | 3.16 µM (inactive) | 6.22 µM (inactive) | 1.77 µM (inactive) | 4.06 µM (inactive) | 3.35 µM (inactive) | 2.32 µM (inactive) | 2.01 µM (inactive) | 3.88 µM (inactive) | 2.2 µM (inactive) | 5.81 µM (inactive) | 2.15 µM (inactive) | 2.49 µM (inactive) | 2 µM (inactive) | 3.25 µM (inactive) | 3.85 µM (inactive) | 1.88 µM (inactive) | 2.31 µM (inactive) | 2.55 µM (inactive) | 2.02 µM (inactive)
7 | Cc1ccccc1NC(=O)CC(=O)NNC(Sc1ccccc1)c1cc(/N=N/c2ccc(Br)cc2)ccc1O (stereo not given) | 1.39 µM (inactive) | 1.82 µM (inactive) | 0.733 µM (active) | 2.17 µM (inactive) | 3.79 µM (inactive) | > 10 µM (inactive) | 2.64 µM (inactive) | 0.723 µM (active) | 2.04 µM (inactive) | 0.723 µM (active) | 2.75 µM (inactive) | 6.01 µM (inactive) | 0.43 µM (active) | 6.52 µM (inactive) | 3.72 µM (inactive) | 3.65 µM (inactive) | 4.79 µM (inactive) | 0.332 µM (active) | 1.71 µM (inactive) | 0.368 µM (active)
8 | Clc1ccc2oc(CCc3ccccc3)nc2c1 | 69.7 µM (inactive) | 47.2 µM (inactive) | 87.9 µM (inactive) | > 100 µM (inactive) | 17.8 µM (inactive) | > 100 µM (inactive) | 37.2 µM (inactive) | 59.8 µM (inactive) | 32.6 µM (inactive) | 49.4 µM (inactive) | 33.6 µM (inactive) | 35.6 µM (inactive) | 29.8 µM (inactive) | 72.3 µM (inactive) | 49.5 µM (inactive) | 42.4 µM (inactive) | 37.3 µM (inactive) | 35.4 µM (inactive) | 40.8 µM (inactive) | 21.3 µM (inactive)
9 | Oc1ccc(-c2cn3cc(C(F)(F)F)ccc3n2)cc1 | 41.5 µM (inactive) | 12.1 µM (inactive) | 89.1 µM (inactive) | > 100 µM (inactive) | 6.84 µM (inactive) | > 100 µM (inactive) | 41.1 µM (inactive) | 51.3 µM (inactive) | 74.3 µM (inactive) | 75.5 µM (inactive) | 45.7 µM (inactive) | 17.3 µM (inactive) | 15.9 µM (inactive) | > 100 µM (inactive) | 56.4 µM (inactive) | 29.6 µM (inactive) | 43.3 µM (inactive) | 26.5 µM (inactive) | 29.9 µM (inactive) | 41.3 µM (inactive)
10 | Cc1c(C)c(CC(=O)N2CC2)c(C)c(C)c1CC(=O)N1CC1 | 25.9 µM (inactive) | 1.43 µM (inactive) | 2.41 µM (inactive) | 5.21 µM (inactive) | 6.73 µM (inactive) | 30.3 µM (inactive) | 5.56 µM (inactive) | 5.25 µM (inactive) | 15.5 µM (inactive) | 14.5 µM (inactive) | 3.4 µM (inactive) | 9.02 µM (inactive) | 1.15 µM (inactive) | 17 µM (inactive) | 21.9 µM (inactive) | 17.6 µM (inactive) | 17.1 µM (inactive) | 0.441 µM (active) | 11 µM (inactive) | 19.5 µM (inactive)
